Experimental data published in ChEMBL document CHEMBL1165957, “Alkaloids from the bark of Guatteria hispida and their evaluation as antioxidant and antimicrobial agents” (2010).
≈ marks a conversion by molar mass, not a printed value. Calls of active or inactive are those of the source. The rule behind the calls is not given here.

Legend:
Format in all cases: functional
[1] = Antioxidant activity assessed as trolox equivalents of peroxyl radical scavenging activity by ORAC assay; design: unit not given here
Candida parapsilosis = assay: Antimicrobial activity against Candida parapsilosis ATCC 22019 by broth dilution method
Candida dubliniensis [2] = assay: Antimicrobial activity against Candida dubliniensis ATCC 778157 by broth dilution method
Staphylococcus aureus [3] = assay: Antimicrobial activity against Staphylococcus aureus 7+ penicillinase positive + by broth dilution method
Candida tropicalis = assay: Antimicrobial activity against Candida tropicalis CT by broth dilution method
Nakaseomyces glabratus = assay: Antimicrobial activity against Candida glabrata ATCC 30070 by broth dilution method
Pseudomonas aeruginosa = assay: Antimicrobial activity against Pseudomonas aeruginosa ATCC 27853 by broth dilution method
[4] = system: Staphylococcus epidermidis; assay: Antimicrobial activity against Staphylococcus epidermidis 6ep by broth dilution method
Staphylococcus aureus [5] = assay: Antimicrobial activity against Staphylococcus aureus 8- penicillinase negative by broth dilution method
Escherichia coli = assay: Antimicrobial activity against Escherichia coli ATCC 10538 by broth dilution method
Candida dubliniensis [6] = assay: Antimicrobial activity against Candida dubliniensis ATCC 777 by broth dilution method
Candida albicans = assay: Antimicrobial activity against Candida albicans ATCC 10231 by broth dilution method
Kocuria rhizophila = assay: Antimicrobial activity against Kocuria rhizophila ATCC 9341 by broth dilution method
Staphylococcus aureus [7] = assay: Antimicrobial activity against Staphylococcus aureus ATCC 14458 by broth dilution method

Structure (SMILES) | Activity [1] | MIC (Candida dubliniensis [2]) | MIC (Staphylococcus aureus [3]) | MIC (Candida tropicalis) | MIC (Nakaseomyces glabratus) | MIC (Pseudomonas aeruginosa) | MIC [4] | MIC (Staphylococcus aureus [5]) | MIC (Escherichia coli) | MIC (Candida dubliniensis [6]) | MIC (Candida albicans) | MIC (Kocuria rhizophila) | MIC (Staphylococcus aureus [7]) | further results
O=c1c(O[C@@H]2O[C@H](CO)[C@@H](O)[C@H](O)[C@H]2O)c(-c2ccc(O)c(O)c2)oc2cc(O)cc(O)c12 | 5.25 |  |  |  |  |  |  |  |  |  |  |  |  | 
O=C1c2ccccc2-c2c3c(cc4ccnc1c24)OCO3 [LIRIODENINE] | 0.3 | 100 µg/mL (≈ 363 µM) | inactive | inactive | inactive | inactive | 50 µg/mL (≈ 182 µM) | inactive | inactive | 50 µg/mL (≈ 182 µM) | inactive | inactive | inactive | MIC (Candida parapsilosis): inactive
O=C(N[C@H](CO)[C@H](O)c1ccc([N+](=O)[O-])cc1)C(Cl)Cl [CHLORAMPHENICOL] |  |  | 25 µg/mL |  |  | 850 µg/mL (≈ 2630 µM) | 50 µg/mL (≈ 155 µM) | 25 µg/mL (≈ 77.4 µM) | 50 µg/mL (≈ 155 µM) |  |  | 50 µg/mL (≈ 155 µM) | 25 µg/mL (≈ 77.4 µM) | 
COc1cc2c(cc1O)C[C@H]1c3cc(OC)c(O)cc3CCN1C2 | 1.67 |  |  |  |  |  |  |  |  |  |  |  |  | 
COc1cc2c3c(c1OC)-c1ccccc1CC3NCC2 (configuration not stated) | 0.27 |  |  |  |  |  |  |  |  |  |  |  |  | 
COc1c(OC)c2c3c(nccc3c1OC)C(=O)c1ccccc1-2 [HOMOMOSCHATOLINE] | 0.5 | 25 µg/mL (≈ 77.8 µM) | inactive | inactive | inactive | inactive | 25 µg/mL (≈ 77.8 µM) | inactive | inactive | 12.5 µg/mL (≈ 38.9 µM) | inactive | inactive | inactive | MIC (Candida parapsilosis): inactive
CC(=O)N1CCN(c2ccc(OCC3COC(Cn4ccnc4)(c4ccc(Cl)cc4Cl)O3)cc2)CC1 (configuration not stated) [KETOCONAZOLE] |  | 12.5 µg/mL (≈ 23.5 µM) |  | 12.5 µg/mL (≈ 23.5 µM) | 12.5 µg/mL (≈ 23.5 µM) |  |  |  |  | 12.5 µg/mL (≈ 23.5 µM) | 12.5 µg/mL (≈ 23.5 µM) |  |  | MIC (Candida parapsilosis; Lodderomyces parapsilosis): 12.5 µg/mL (≈ 23.5 µM)
COc1ccc2c(c1)C(=O)c1nccc3c(O)c(OC)c(OC)c-2c13 | 1.62 |  |  |  |  |  |  |  |  |  |  |  |  | 
COc1cc2ccnc3c2c(c1OC)-c1ccccc1C3=O [LYSICAMINE] | 0.86 | 100 µg/mL (≈ 343 µM) | inactive | inactive | inactive | inactive | 50 µg/mL (≈ 172 µM) | inactive | inactive | 100 µg/mL (≈ 343 µM) | inactive | inactive | inactive | MIC (Candida parapsilosis): inactive
O=c1c(O)c(-c2ccc(O)c(O)c2)oc2cc(O)cc(O)c12 | 5.62 |  |  |  |  |  |  |  |  |  |  |  |  | 
COc1cc2c(cc1O)C[C@H]1c3cc(O)c(OC)cc3CCN1C2 | 1.4 |  |  |  |  |  |  |  |  |  |  |  |  | 
O=C(O)/C=C/c1ccc(O)c(O)c1 | 2.95 |  |  |  |  |  |  |  |  |  |  |  |  | 
